Experimental data reported in US9242984B2, “Pyrazolyl derivatives as Syk inhibitors” (Merck Sharp & Dohme Corp., priority 2012, dated 2016).
Like-named read-outs stand apart in the source and are kept apart here.

Molecular target: T1, recombinant human Syk (GST-hSyk fusion protein) (Homo sapiens, UniProt P43405)
T1 construct: purchased Carna Biosciences 08-176
Test: Homogeneous Time-Resolved Fluorescence (HTRF) assay for the recombinant human Syk enzyme
Type: biochemical
Settings: 10-dose titration, 25 μM ATP
Outline: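 IC50 came from a four-parameter fit over ten doses, 10 μM to 0.508 nM, with HTRF read-out (Eu-anti-pTyr antibody, SA-APC, EDTA stop, 30 min). The enzyme, 5 pM GST-hSyk, met compound for 10 min, then phosphorylated 250 nM biotin-peptide with 25 μM ATP and 5 mM Mg for 45 min at room temperature, pH 7.5.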

[1] = IC50 class, read-out: rhSYK Activity

| SMILES | IC50 [1] [nM] | IC50 (read-out: rhSYK IC50) [nM] |
| --- | --- | --- |
| Cc1cc(Nc2nccc(C(F)(F)F)n2)cc(-c2cnn(CC3(O)CCN(CC(=O)OC(C)(C)C)CC3)c2)c1 [Example 12.4, tert-butyl (4-hydroxy-4-{[4-(3-methyl-5-{[4-(trifluoro-methyl)pyrimidin-2-yl]amino}phenyl)-1H-pyrazol-1-yl]methyl}-piperidin-1-yl)acetate] | 100 to 1000 |  |
| Cc1cc(Nc2ncc(F)c(C(F)F)n2)cc(-c2cnn([C@@H]3CCC[C@@H](O)[C@H]3O)c2)c1 (single isomer, unassigned) [Example 10.11, 3-[4-(3-{[4-(difluoromethyl)-5-fluoro-pyrimidin-2-yl]amino}-5-methylphenyl)-1H-pyrazol-1-yl]cyclohexane-1,2-diol] | ≤ 100 | 3.5 |
| Cc1cc(Nc2nccc(C(F)F)n2)cc(-c2cnn(CC3CC(=O)NC3=O)c2)c1 (stereo not shown) [Example 2.73, 3-{[4-(3-{[4-(difluoromethyl)pyrimidin-2-yl]amino}-5-methylphenyl)-1H-pyrazol-1-yl]methyl}pyrrolidine-2,5-dione] | ≤ 100 |  |
| Cc1cc(Nc2nccc(C(F)(F)F)n2)cc(-n2cc(C(C)(O)c3ccc(C(=O)O)cc3)cn2)c1 (single isomer, unassigned) [Example 19.7, 4-{1-hydroxy-1-[1-(3-methyl-5-{[4-(trifluoromethyl)pyrimidin-2-yl]amino}phenyl)-1H-pyrazol-4-yl]ethyl}benzoic acid] | ≤ 100 |  |
| Cc1cc(Nc2nccc(C(F)(F)F)n2)cc(-c2cnn(C(C)C(O)C(N)=O)c2)c1 (stereo not shown) [Example 7.5, 2-hydroxy-3-[4-(3-methyl-5-{[4-(trifluorometh-yl)pyrimidin-2-yl]amino}-phenyl)-1H-pyrazol-1-yl]butanamide] | ≤ 100 |  |
| Cc1cc(Nc2nccc(C(C)(F)F)n2)cc(-c2cnn(CC3CNC(=O)O3)c2)c1 (stereo not shown) [Example 3.126, 5-{[4-(3-{[4-(1,1-difluoroethyl)pyrimidin-2-yl]amino}-5-methylphenyl)-1H-pyrazol-1-yl]methyl}-1,3-oxazolidin-2-one] | ≤ 100 |  |
| Cc1cc(Nc2nccc(C(F)(F)F)n2)cc(-c2cnn(CC(O)C(F)(F)F)c2)c1 (single isomer, unassigned) [Example 3.45, 1,1,1-trifluoro-3-[4-(3-methyl-5-{[4-(trifluoromethyl)pyrimidin-2-yl]amino}phenyl)-1H-pyrazol-1-yl]propan-2-ol] | ≤ 100 |  |
| Cc1cc(Nc2nccc(C(F)F)n2)cc(-c2cnn(CC3(C)CNC(=O)O3)c2)c1 (stereo not shown) [Example 3.124, 5-{[4-(3-{[4-(difluoromethyl)pyrimidin-2-yl]amino}-5-methylphenyl)-1H-pyrazol-1-yl]methyl}-5-methyl-1,3-oxazolidin-2-one] | ≤ 100 |  |
| Cc1cc(Nc2nccc(C(F)F)n2)cc(-c2cnn(CC3OC(=O)NC3C3CC3)c2)c1 (single isomer, unassigned) [Example 23.19, 4-cyclopropyl-5-{[4-(3-{[4-(difluoromethyl)pyrimidin-2-yl]amino}-5-methylphenyl)-1H-pyrazol-1-yl]methyl}-1,3-oxazolidin-2-one] | ≤ 100 |  |
| Cc1cc(Nc2nccc(C(F)(F)F)n2)cc(-c2cnn(CC3NC(=O)OC3C)c2)c1 (stereo not shown) [Example 3.129, 5-methyl-4-{[4-(3-methyl-5-{[4-(trifluoromethyl)pyrimidin-2-yl]amino}phenyl)-1H-pyrazol-1-yl]methyl}-1,3-oxazolidin-2-one] | ≤ 100 |  |
| Cc1cc(Nc2nccc(C(F)F)n2)cc(-c2cnn(CC(O)C(N)=O)c2)c1 (stereo not shown) [Example 5.18, 3-[4-(3-{[4-(difluoromethyl)pyrimidin-2-yl]amino}-5-methylphenyl)-1H-pyrazol-1-yl]-2-hydroxypropanamide] | ≤ 100 |  |
| Cc1cc(Nc2nccc(C(F)F)n2)cc(-c2cnn(C[C@H]3CNCCO3)c2)c1 [Example 2.84, 4-(difluoromethyl)-N-(3-methyl-5-{1-[(2R)-morpholin-2-ylmethyl]-1H-pyrazol-4-yl}phenyl)pyrimidin-2-amine] | ≤ 100 |  |
| Cc1cc(Nc2nccc(C(F)F)n2)cc(-c2cnn(CC3CC(=O)NC3=O)c2)c1 (stereo not shown) [Example 2.71, 3-{[4-(3-{[4-(difluoromethyl)pyrimidin-2-yl]amino}-5-methylphenyl)-1H-pyrazol-1-yl]methyl}pyrrolidine-2,5-dione] | ≤ 100 |  |
| Cc1cc(Nc2nccc(C(F)(F)F)n2)cc(-c2cnn(CC(C)(O)CO)c2)c1 (single isomer, unassigned) [Example 21.1, 2-Methyl-3-(4-(3-methyl-5-((4-(trifluoromethyl)pyrimidin-2-yl)amino)phenyl)-1H-pyrazol-1-yl)propane-1,2-diol] | ≤ 100 | 3.66 |
| Cc1cc(Nc2nccc(C(F)(F)F)n2)cc(-c2c(C)n[nH]c2C)c1 [Example 2.38, N-[3-(3,5-dimethyl-1H-pyrazol-4-yl)-5-methylphenyl]-4-(trifluoromethyl)pyrimidin-2-amine] | 100 to 1000 |  |
| Cc1cc(Nc2ncc(Cl)c(C)n2)cc(-c2cnn(CCC(N)=O)c2)c1 [Example 2.13, 3-(4-{3-[(5-chloro-4-methylpyrimidin-2-yl)amino]-5-methylphenyl}-1H-pyrazol-1-yl)propanamide] | ≤ 100 |  |

| SMILES | IC50 [1] [nM] | IC50 (read-out: rhSYK IC50) [nM] |
| --- | --- | --- |
| COC(=O)[C@@H](O)Cn1cc(-c2cc(C)cc(Nc3nccc(C(F)(F)F)n3)c2)cn1 [Example 5.2, methyl (2S)-2-hydroxy-3-[4-(3-methyl-5-{[4-(trifluoromethyl)-pyrimidin-2-yl]amino}phenyl)-1H-pyrazol-1-yl]propanoate] | ≤ 100 |  |
| Cc1cc(Nc2nccc(C(F)(F)F)n2)cc(-c2cnn(CC(O)c3ccc(C(N)=O)cc3)c2)c1 (stereo not shown) [Example 8.24, 4-{1-hydroxy-2-[4-(3-methyl-5-{[4-(trifluorometh-yl)pyrimidin-2-yl]amino}-phenyl)-1H-pyrazol-1-yl]ethyl}-benzamide] | ≤ 100 |  |
| Cc1cc(Nc2cc(C(F)(F)F)ccn2)nc(-c2cc(C(F)(F)F)nn2C)n1 [Example 1.46, 6-methyl-2-[1-methyl-3-(trifluoromethyl)-1H-pyrazol-5-yl]-N-[4-(trifluoromethyl)pyridin-2-yl]pyrimidin-4-amine] | 1000 to 10000 |  |
| Cc1cc(Nc2nccc(C(F)(F)F)n2)cc(-c2cnn(CC3(O)CCOC(C)(C)C3)c2)c1 (stereo not shown) [Example 12.9, 2,2-dimethyl-4-{[4-(3-methyl-5-{[4-(trifluoro-methyl)pyrimidin-2-yl]amino}phenyl)-1H-pyrazol-1-yl]methyl}-tetrahydro-2H-pyran-4-ol] | ≤ 100 |  |
| CCOC(=O)CCn1cc(-c2cc(C)cc(Nc3nccc(C(F)(F)F)n3)c2)cn1 [Example 2.43, ethyl 3-[4-(3-methyl-5-{[4-(trifluoromethyl)pyrimidin-2-yl]amino}phenyl)-1H-pyrazol-1-yl]propanoate] | ≤ 100 |  |
| Cc1cc(Nc2ncccn2)cc(-c2cnn(CC3CNC(=O)O3)c2)c1 (stereo not shown) [Example 3.115, 5-({4-[3-methyl-5-(pyrimidin-2-ylamino)phenyl]-1H-pyrazol-1-yl}methyl)-1,3-oxazolidin-2-one] | ≤ 100 |  |
| Cc1cc(Nc2ncc(F)c(C)n2)cc(-c2cnn(C[C@@H](O)C(=O)O)c2)c1 [Example 11.13, (2R)-3-(4-{3-[(5-fluoro-4-methylpyrimidin-2-yl)amino]-5-methylphenyl}-1H-pyrazol-1-yl)-2-hydroxypropanoic acid] | ≤ 100 |  |
| Cc1cc(Nc2nccc(C(F)(F)F)n2)cc(-c2cnn(CC3CCO3)c2)c1 (stereo not shown) [Example 3.18, N-{3-methyl-5-[1-(oxetan-2-ylmethyl)-1H-pyrazol-4-yl]-phenyl}-4-(trifluoro-methyl)-pyrimidin-2-amine] | ≤ 100 |  |
| CCC(C)(O)Cn1cc(-c2cc(C)cc(Nc3nccc(C(F)F)n3)c2)cn1 (stereo not shown) [Example 3.114, 1-[4-(3-{[4-(difluoromethyl)pyrimidin-2-yl]amino}-5-methylphenyl)-1H-pyrazol-1-yl]-2-methylbutan-2-ol] | ≤ 100 |  |
| Cc1ccnc(Nc2cccc(-c3cnn(CCC(N)=O)c3)c2)n1 [Example 2.10, 3-(4-{3-[(4-methylpyrimidin-2-yl)amino]phenyl}-1H-pyrazol-1-yl)propanamide] | 100 to 1000 |  |
| Cc1cc(Nc2nccc(C(F)(F)F)n2)cc(-c2cnn(CC3OC(=O)NC3C)c2)c1 (stereo not shown) [Example 3.120, 4-methyl-5-{[4-(3-methyl-5-{[4-(trifluoromethyl)pyrimidin-2-yl]amino}phenyl)-1H-pyrazol-1-yl]methyl}-1,3-oxazolidin-2-one] | ≤ 100 |  |
| Cc1cc(Nc2cc(C(F)(F)F)ccn2)nc(-c2cnn(CC(O)c3ccc(C(N)=O)cc3)c2)c1 (stereo not shown) [Example 6.16, 4-{1-hydroxy-2-[4-(4-methyl-6-{[4-(trifluoromethyl)-pyridin-2-yl]amino}-pyridin-2-yl)-1H-pyrazol-1-yl]ethyl}-benzamide] | ≤ 100 |  |
| Cc1cc(Nc2nccc(C(F)(F)F)n2)cc(-c2cnn(C3CCCC(O)C3O)c2)c1 (stereo not shown) [Example 10.3] | ≤ 100 |  |
| Cc1cc(Nc2nccc(C)n2)cc(-c2cnn(CC3(C)CNC(=O)O3)c2)c1 (stereo not shown) [Example 3.121, 5-methyl-5-[(4-{3-methyl-5-[(4-methylpyrimidin-2-yl)amino]phenyl}-1H-pyrazol-1-yl)methyl]-1,3-oxazolidin-2-one] | ≤ 100 |  |
| Cc1cc(Nc2nccc(C(F)(F)F)n2)cc(-c2cnn(C[C@@H](O)C(N)=O)c2)c1 [Example 7.3, (2R)-2-hydroxy-3-[4-(3-methyl-5-{[4-(trifluorometh-yl)pyrimidin-2-yl]amino}-phenyl)-1H-pyrazol-1-yl]propanamide] | ≤ 100 |  |
| CCC(C(=O)OC)n1cc(-c2cc(C)cc(Nc3nccc(C(F)(F)F)n3)c2)cn1 (stereo not shown) [Example 3.28, methyl 2-[4-(3-methyl-5-{[4-(trifluoromethyl)pyrimidin-2-yl]amino}-phenyl)-1H-pyrazol-1-yl]butanoate] | ≤ 100 |  |
